Measurements from article PMC6348443 (Journal of Medicinal Chemistry, 2018).
Where a name gives a salt, the structure may show the parent alone.

How the values were obtained:
MOR = target: T1, MOR (Rattus norvegicus, UniProt P33535); experiment: competition radioligand binding, rat brain membranes, [3H]DAMGO; settings: for Ki: rat brain membranes, read-out: opioid receptor binding Ki MOR
T1 construct: Membranes were prepared from Sprague-Dawley rat brains or guinea-pig brains according to the described procedures; tissue Labortierkunde und Laborgenetik, Medizinische Universität Wien; host or cells: Sprague-Dawley rat brain without cerebella

KOR = target: T2, KOR (Homo sapiens, UniProt P41145); experiment: [35S]GTPγS binding assay, CHO-hKOR membranes; format: biochemical; settings: for EC50: [35S]GTPγS, CHO human KOR membranes, read-out: KOR EC50; for Emax: relative to reference full agonist U69,593, read-out: KOR % stim.
T2 construct: host or cells: CHO (CHO-hKOR)

DOR = target: T3, DOR (Homo sapiens, UniProt P41143); experiment: [35S]GTPγS binding assay, CHO-hDOR membranes; format: biochemical; settings: for EC50: [35S]GTPγS, CHO human DOR membranes; for Emax: relative to reference full agonist DPDPE, read-out: DOR % stim.
T3 construct: host or cells: CHO (CHO-hDOR)

male CD1 mice = experiment: acetic acid-induced writhing assay after sc administration; format: in vivo, mouse; settings: for ED50: Mus musculus, 0.5 h, read-out: ED50 (95% CI), mice, sc, inhibition of writhing 30 min after drug administration

T3 sequence (P41143 whole entry): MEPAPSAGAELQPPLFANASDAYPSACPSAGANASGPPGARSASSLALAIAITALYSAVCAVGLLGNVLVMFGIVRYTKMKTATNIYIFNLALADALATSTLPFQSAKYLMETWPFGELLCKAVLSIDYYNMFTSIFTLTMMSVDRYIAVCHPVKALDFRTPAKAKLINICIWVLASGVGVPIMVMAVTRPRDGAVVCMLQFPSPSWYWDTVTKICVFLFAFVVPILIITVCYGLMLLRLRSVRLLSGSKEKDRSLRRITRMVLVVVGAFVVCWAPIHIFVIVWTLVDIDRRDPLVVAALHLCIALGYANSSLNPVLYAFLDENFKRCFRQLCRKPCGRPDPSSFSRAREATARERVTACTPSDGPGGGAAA
T2 sequence (P41145 whole entry): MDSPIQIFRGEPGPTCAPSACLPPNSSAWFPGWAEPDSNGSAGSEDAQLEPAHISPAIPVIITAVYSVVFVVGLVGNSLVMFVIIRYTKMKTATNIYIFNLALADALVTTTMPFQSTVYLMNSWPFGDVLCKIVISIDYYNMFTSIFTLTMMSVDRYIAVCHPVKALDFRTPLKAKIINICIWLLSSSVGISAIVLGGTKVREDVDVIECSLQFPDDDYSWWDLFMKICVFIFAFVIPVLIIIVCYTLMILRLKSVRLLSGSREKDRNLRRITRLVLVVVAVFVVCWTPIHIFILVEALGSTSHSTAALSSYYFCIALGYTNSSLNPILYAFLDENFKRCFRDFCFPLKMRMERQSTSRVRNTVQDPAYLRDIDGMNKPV
T1 sequence (P33535 whole entry): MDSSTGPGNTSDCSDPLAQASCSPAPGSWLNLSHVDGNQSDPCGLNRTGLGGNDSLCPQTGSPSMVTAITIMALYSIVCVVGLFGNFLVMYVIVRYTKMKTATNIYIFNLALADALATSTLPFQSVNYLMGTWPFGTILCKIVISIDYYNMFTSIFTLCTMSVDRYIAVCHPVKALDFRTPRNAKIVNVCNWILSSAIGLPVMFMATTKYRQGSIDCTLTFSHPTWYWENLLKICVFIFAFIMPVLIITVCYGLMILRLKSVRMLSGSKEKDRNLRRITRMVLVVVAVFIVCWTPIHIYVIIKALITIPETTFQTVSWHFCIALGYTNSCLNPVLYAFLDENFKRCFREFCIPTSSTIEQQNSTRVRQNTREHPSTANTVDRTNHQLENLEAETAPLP

| SMILES | Ki (MOR) [nM] | increase in MOR binding affinity vs comparator (MOR; rat brain, 17b vs 4b, 16a/b vs 7a/b, 22a/b vs 7a, 7b and 9b, 14a vs 14b) [times] | EC50 (KOR) [nM] | Emax (KOR) [%] | EC50 (DOR) [nM] | functional profile at DOR (full/partial agonist) (DOR; full agonist ≥85% of the response to DPDPE) | Emax (DOR) [%] | ED50 (male CD1 mice) [mg/kg] | higher antinociceptive potency than morphine (male CD1 mice; writhing assay, mice) [times] | Ki ratio MOR/DOR/KOR (MOR; from Ki in rat (MOR, DOR) and guinea-pig (KOR) brain membranes) | DOR/MOR selectivity ratio (MOR; from Ki in rat brain, for 1 from Ki of ref 44) | ED50 (95% CI) (male CD1 mice; mice, inhibition of writhing 30 min after drug administration) |
| --- | --- | --- | --- | --- | --- | --- | --- | --- | --- | --- | --- | --- |
| CO[C@@]12CC[C@H](N[C@H](C(=O)N[C@@H](Cc3ccc(O)cc3)C(=O)O)C(C)C)[C@@H]3Oc4c(O)ccc5c4[C@@]31CCN(C)[C@@H]2C5 [Compound 22a, (2S)-2-[[(4,5α-Epoxy-3-hydroxy-14β-methoxy-17-methylmorphinan-6α-yl)amino]-(2S)-3-methylbutyrylamino]-3-(4-hydroxyphenyl)propionic Acid] | 0.82 ± 0.13 | 4 to 7 | 330 ± 179 | 50 ± 2 | 1.16 ± 0.6 | full agonists | 88 ± 5 | 0.178 | 2.5 |  |  |  |
| CC[C@H](N[C@H]1CC[C@@]2(OC)[C@H]3Cc4ccc(O)c5c4[C@@]2(CCN3C)[C@H]1O5)C(=O)O [Compound 19a, (2S)-2-[(4,5α-Epoxy-3-hydroxy-14β-methoxy-17-methylmorphinan-6α-yl)amino]-2-ethylacetic Acid Dihydrochloride] | 0.76 ± 0.19 |  | 942 ± 235 | 61 ± 2 | 98.2 ± 5.1 |  | 104 ± 9 | < 0.02 |  | 1/49/189 | 49 | 17.5 (5.13–59.6) μg/kg |
